Non-standard residues stand in square brackets, D forms with d. Residues, ends and D or L forms follow the SMILES beside them. dPhe(4-Cl) = N[C@H](Cc1ccc(Cl)cc1)C(=O)O; d2Nal = N[C@H](Cc1ccc2ccccc2c1)C(=O)O; dCit = NC(=O)NCCC[C@@H](N)C(=O)O; d3Pal = N[C@H](Cc1cccnc1)C(=O)O
Legend:
study subjects [1] = experiment: Nocturia: how often the study subjects got up during the night in order to urinate; assay type: in vivo, human; settings: for decrease in nocturia frequency compared to placebo: largest difference, n-times mean
Excerpt: (§1) The results shown are percentage variations from baseline at the beginning of the study (week 0).
The results shown are mean values, how often the study subjects had to get up.

study subjects [2] = experiment: Frequency of emptying: how often the study subjects had to urinate a second time within a 2 hour test period; assay type: in vivo, human; settings: for decrease in frequency of emptying compared to placebo: largest difference, n-times mean
Excerpt: as §1
The results shown are mean values, how often the study subjects had to urinate a second time.

study subjects [3] = experiment: Urgency to urinate: how often the study subjects had difficulties to delay the urination; assay type: in vivo, human; settings: for Urgency to urinate (n-times, mean): 15 + 15: 15 mg at week 0 and week 2
Excerpt: The results shown are mean values, how often the study subjects had difficulties.

[4] = tested on: testosterone blood levels; experiment: Median testosterone blood levels / chemical (hormonal) castration; settings: for Testosterone [ng/mL] (median): blood level
Procedure: Preferably, chemical (hormonal) castration is a testosterone castration and refers to a testosterone blood level of equal or below 1.2 ng/mL, preferably 0.5 ng/mL.
Study subjects were treated with Cetrorelix pamoate with the following doses according to the following administration schemes: • 60 mg Cetrorelix pamaote administered at week 0 and 30 mg Cetrorelix pamaote administered at week 2 (treatment period) followed by up to 5 months of no treatment (treatment-free period) • 60 mg Cetrorelix pamaote administered at week 0 and 60 mg Cetrorelix pamaote administered at week 2 (treatment period) followed by up to 5 months of no treatment (treatment-free period)
Study subjects were treated with Cetrorelix acetate with the following doses according to the following administration schemes: • 5 mg Cetrorelix acetate administered at week 0, 1, 2 and 3 (total monthly dose of 20 mg) (treatment period) followed by up to 4 months of no treatment (treatment-free period) • 10 mg Cetrorelix acetate administered at week 0 and 10 mg Cetrorelix acetate administered at week 2 (treatment period) followed by up to 4 months of no treatment (treatment-free period) • 10 mg Cetrorelix acetate administered at week 0, 1, 2 and 3 (total monthly dose of 40 mg) (treatment period) followed by up to 4 months of no treatment (treatment-free period)
Study subjects were treated with Ozarelix with the following doses according to the following administration schemes: • 15 mg Ozarelix administered at week 0 and 15 mg Ozarelix administered at week 2 (treatment period) followed by up to 4 months of no treatment (treatment-free period)

study subjects [5] = experiment: IPSS irritative subscore (sum of nocturia, frequency of emptying and urgency to urinate); assay type: in vivo, human; settings: for IPSS irritative subscore (nocturia, frequency of emptying, urgency to urinate): percentage variation from baseline
Excerpt: as §1

[6] = 15 + 15: 15 mg at week 0 and week 2, Week 0
[7] = 15 + 15: 15 mg at week 0 and week 2, Week 4
[8] = 15 + 15: 15 mg at week 0 and week 2, Week 8
[9] = 15 + 15: 15 mg at week 0 and week 2, Week 12
[10] = 15 + 15: 15 mg at week 0 and week 2, Week 16
[11] = 15 + 15: 15 mg at week 0 and week 2, Week 20
[12] = 15 + 15: 15 mg at week 0 and week 2, Week 24
[13] = 2 × 10: 10 mg at week 0 and week 2, Week 0
[14] = 2 × 10: 10 mg at week 0 and week 2, Week 4
[15] = 2 × 10: 10 mg at week 0 and week 2, Week 8
[16] = 2 × 10: 10 mg at week 0 and week 2, Week 12
[17] = 2 × 10: 10 mg at week 0 and week 2, Week 16
[18] = 2 × 10: 10 mg at week 0 and week 2, Week 20
[19] = 4 × 5: 5 mg at week 0, 1, 2 and 3, Week 0
[20] = 4 × 5: 5 mg at week 0, 1, 2 and 3, Week 4
[21] = 4 × 5: 5 mg at week 0, 1, 2 and 3, Week 8
[22] = 4 × 5: 5 mg at week 0, 1, 2 and 3, Week 12
[23] = 4 × 5: 5 mg at week 0, 1, 2 and 3, Week 16
[24] = 4 × 5: 5 mg at week 0, 1, 2 and 3, Week 20
[25] = 4 × 10: 10 mg at week 0, 1, 2 and 3, Week 0
[26] = 4 × 10: 10 mg at week 0, 1, 2 and 3, Week 4
[27] = 4 × 10: 10 mg at week 0, 1, 2 and 3, Week 8
[28] = 4 × 10: 10 mg at week 0, 1, 2 and 3, Week 12
[29] = 4 × 10: 10 mg at week 0, 1, 2 and 3, Week 16
[30] = 4 × 10: 10 mg at week 0, 1, 2 and 3, Week 20
[31] = 5+5+5+5 mg, 10+10 mg and 10+10+10+10 mg schemes

## Ozarelix
Study subjects [1]; 15+15 mg scheme
  decrease in nocturia frequency compared to placebo: up to 0.76
Study subjects [1]; [6]
  Nocturia (n-times, mean): 2.73 n-times
Study subjects [1]; [7]
  Nocturia (n-times, mean): 1.83 n-times
Study subjects [1]; [8]
  Nocturia (n-times, mean): 1.43 n-times
Study subjects [1]; [9]
  Nocturia (n-times, mean): 1.54 n-times
Study subjects [1]; [10]
  Nocturia (n-times, mean): 1.54 n-times
Study subjects [1]; [11]
  Nocturia (n-times, mean): 1.50 n-times
Study subjects [1]; [12]
  Nocturia (n-times, mean): 1.54 n-times
Study subjects [2]; 15+15 mg scheme
  decrease in frequency of emptying compared to placebo: up to 0.30
Study subjects [2]; [7]
  Frequency of emptying (n-times, mean): 2.48 n-times
Study subjects [2]; [8]
  Frequency of emptying (n-times, mean): 2.11 n-times
Study subjects [2]; [9]
  Frequency of emptying (n-times, mean): 1.82 n-times
Study subjects [2]; [10]
  Frequency of emptying (n-times, mean): 1.75 n-times
Study subjects [2]; [11]
  Frequency of emptying (n-times, mean): 1.71 n-times
Study subjects [2]; [12]
  Frequency of emptying (n-times, mean): 1.75 n-times
Study subjects [3]; 15+15 mg scheme, largest difference, n-times mean
  decrease in urgency to urinate compared to placebo: up to 0.74
Study subjects [3]; Week 0
  Urgency to urinate (n-times, mean): 2.80 n-times
Study subjects [3]; Week 4
  Urgency to urinate (n-times, mean): 2.17 n-times
Study subjects [3]; Week 8
  Urgency to urinate (n-times, mean): 1.89 n-times
Study subjects [3]; Week 12
  Urgency to urinate (n-times, mean): 1.75 n-times
Study subjects [3]; Week 16
  Urgency to urinate (n-times, mean): 1.39 n-times
Study subjects [3]; Week 20
  Urgency to urinate (n-times, mean): 1.71 n-times
Study subjects [3]; Week 24
  Urgency to urinate (n-times, mean): 1.89 n-times
[4]; [6]
  Testosterone [ng/mL] (median): 3.57 ng/mL
[4]; [7]
  Testosterone [ng/mL] (median): 2.97 ng/mL
[4]; [8]
  Testosterone [ng/mL] (median): 4.19 ng/mL
[4]; [9]
  Testosterone [ng/mL] (median): 4.11 ng/mL
[4]; [10]
  Testosterone [ng/mL] (median): 3.82 ng/mL
[4]; [11]
  Testosterone [ng/mL] (median): 3.92 ng/mL
[4]; [12]
  Testosterone [ng/mL] (median): 3.86 ng/mL

## CC(=O)N[C@H](Cc1ccc2ccccc2c1)C(=O)N[C@H](Cc1ccc(Cl)cc1)C(=O)N[C@H](Cc1cccnc1)C(=O)N[C@@H](CO)C(=O)N[C@@H](Cc1ccc(O)cc1)C(=O)N[C@H](CCCNC(N)=O)C(=O)N[C@@H](CC(C)C)C(=O)N[C@@H](CCCNC(=N)N)C(=O)N1CCC[C@H]1C(=O)N[C@H](C)C(N)=O [Cetrorelix acetate] (Ac-[d2Nal][dPhe(4-Cl)][d3Pal]SY[dCit]LRP[dA]-NH2)
Study subjects [1]; [13]
  Nocturia (n-times, mean): 2.69 n-times
Study subjects [1]; [14]
  Nocturia (n-times, mean): 2.00 n-times
Study subjects [1]; [15]
  Nocturia (n-times, mean): 2.06 n-times
Study subjects [1]; [16]
  Nocturia (n-times, mean): 1.97 n-times
Study subjects [1]; [17]
  Nocturia (n-times, mean): 1.97 n-times
Study subjects [1]; [18]
  Nocturia (n-times, mean): 2.16 n-times
Study subjects [1]; [19]
  Nocturia (n-times, mean): 2.57 n-times
Study subjects [1]; [20]
  Nocturia (n-times, mean): 2.09 n-times
Study subjects [1]; [21]
  Nocturia (n-times, mean): 1.94 n-times
Study subjects [1]; [22]
  Nocturia (n-times, mean): 1.85 n-times
Study subjects [1]; [23]
  Nocturia (n-times, mean): 1.79 n-times
Study subjects [1]; [24]
  Nocturia (n-times, mean): 1.85 n-times
Study subjects [1]; [25]
  Nocturia (n-times, mean): 2.63 n-times
Study subjects [1]; [26]
  Nocturia (n-times, mean): 1.79 n-times
Study subjects [1]; [27]
  Nocturia (n-times, mean): 1.78 n-times
Study subjects [1]; [28]
  Nocturia (n-times, mean): 1.75 n-times
Study subjects [1]; [29]
  Nocturia (n-times, mean): 1.87 n-times
Study subjects [1]; [30]
  Nocturia (n-times, mean): 2.16 n-times
Study subjects [1]; [31]
  decrease in nocturia frequency compared to placebo: up to 0.71
Study subjects [2]; [13]
  Frequency of emptying (n-times, mean): 2.29 n-times
Study subjects [2]; [14]
  Frequency of emptying (n-times, mean): 1.86 n-times
Study subjects [2]; [15]
  Frequency of emptying (n-times, mean): 1.58 n-times
Study subjects [2]; [16]
  Frequency of emptying (n-times, mean): 1.55 n-times
Study subjects [2]; [17]
  Frequency of emptying (n-times, mean): 1.45 n-times
Study subjects [2]; [18]
  Frequency of emptying (n-times, mean): 1.66 n-times
Study subjects [2]; [19]
  Frequency of emptying (n-times, mean): 2.49 n-times
Study subjects [2]; [20]
  Frequency of emptying (n-times, mean): 2.23 n-times
Study subjects [2]; [21]
  Frequency of emptying (n-times, mean): 2.00 n-times
Study subjects [2]; [22]
  Frequency of emptying (n-times, mean): 1.73 n-times
Study subjects [2]; [23]
  Frequency of emptying (n-times, mean): 1.52 n-times
Study subjects [2]; [24]
  Frequency of emptying (n-times, mean): 1.79 n-times
Study subjects [2]; [25]
  Frequency of emptying (n-times, mean): 2.86 n-times
Study subjects [2]; [26]
  Frequency of emptying (n-times, mean): 1.62 n-times
Study subjects [2]; [27]
  Frequency of emptying (n-times, mean): 1.66 n-times
Study subjects [2]; [28]
  Frequency of emptying (n-times, mean): 1.81 n-times
Study subjects [2]; [29]
  Frequency of emptying (n-times, mean): 1.65 n-times
Study subjects [2]; [30]
  Frequency of emptying (n-times, mean): 1.78 n-times
Study subjects [2]; [31]
  decrease in frequency of emptying compared to placebo: up to 1.35
Study subjects [5]; 5+5+5+5 mg, 10+10 mg and 10+10+10+10 mg schemes, largest difference
  further decrease in IPSS irritative subscore compared to placebo: up to 43%
Study subjects [5]; [13]
  IPSS irritative subscore (nocturia, frequency of emptying, urgency to urinate): 0%
Study subjects [5]; [14]
  IPSS irritative subscore (nocturia, frequency of emptying, urgency to urinate): −25%
Study subjects [5]; [15]
  IPSS irritative subscore (nocturia, frequency of emptying, urgency to urinate): −33.3%
Study subjects [5]; [16]
  IPSS irritative subscore (nocturia, frequency of emptying, urgency to urinate): −33.3%
Study subjects [5]; [17]
  IPSS irritative subscore (nocturia, frequency of emptying, urgency to urinate): −42.9%
Study subjects [5]; [18]
  IPSS irritative subscore (nocturia, frequency of emptying, urgency to urinate): −29.2%
Study subjects [5]; [19]
  IPSS irritative subscore (nocturia, frequency of emptying, urgency to urinate): 0%
Study subjects [5]; [20]
  IPSS irritative subscore (nocturia, frequency of emptying, urgency to urinate): −16.7%
Study subjects [5]; [21]
  IPSS irritative subscore (nocturia, frequency of emptying, urgency to urinate): −25%
Study subjects [5]; [22]
  IPSS irritative subscore (nocturia, frequency of emptying, urgency to urinate): −28.6%
Study subjects [5]; [23]
  IPSS irritative subscore (nocturia, frequency of emptying, urgency to urinate): −30.8%
Study subjects [5]; [24]
  IPSS irritative subscore (nocturia, frequency of emptying, urgency to urinate): −29.7%
Study subjects [5]; [25]
  IPSS irritative subscore (nocturia, frequency of emptying, urgency to urinate): 0%
Study subjects [5]; [26]
  IPSS irritative subscore (nocturia, frequency of emptying, urgency to urinate): −29.3%
Study subjects [5]; [27]
  IPSS irritative subscore (nocturia, frequency of emptying, urgency to urinate): −31%
Study subjects [5]; [28]
  IPSS irritative subscore (nocturia, frequency of emptying, urgency to urinate): −25%
Study subjects [5]; [29]
  IPSS irritative subscore (nocturia, frequency of emptying, urgency to urinate): −28.6%
Study subjects [5]; [30]
  IPSS irritative subscore (nocturia, frequency of emptying, urgency to urinate): −25%
[4]; 5+5+5+5 mg, 10+10 mg and 10+10+10+10 mg schemes, conclusion from median testosterone blood levels
  chemical (hormonal) castration: successfully prevented
[4]; [13]
  Testosterone [ng/mL] (median): 3.27 ng/mL
[4]; [14]
  Testosterone [ng/mL] (median): 4.41 ng/mL
[4]; [15]
  Testosterone [ng/mL] (median): 3.73 ng/mL
[4]; [16]
  Testosterone [ng/mL] (median): 4.45 ng/mL
[4]; [17]
  Testosterone [ng/mL] (median): 4.16 ng/mL
[4]; [18]
  Testosterone [ng/mL] (median): 4.12 ng/mL
[4]; [19]
  Testosterone [ng/mL] (median): 3.42 ng/mL
[4]; [20]
  Testosterone [ng/mL] (median): 2.95 ng/mL
[4]; [21]
  Testosterone [ng/mL] (median): 3.77 ng/mL
[4]; [22]
  Testosterone [ng/mL] (median): 4.11 ng/mL
[4]; [23]
  Testosterone [ng/mL] (median): 3.91 ng/mL
[4]; [24]
  Testosterone [ng/mL] (median): 3.49 ng/mL
[4]; [25]
  Testosterone [ng/mL] (median): 3.41 ng/mL
[4]; [26]
  Testosterone [ng/mL] (median): 2.17 ng/mL
[4]; [27]
  Testosterone [ng/mL] (median): 3.82 ng/mL
[4]; [28]
  Testosterone [ng/mL] (median): 4.32 ng/mL
[4]; [29]
  Testosterone [ng/mL] (median): 4.32 ng/mL
[4]; [30]
  Testosterone [ng/mL] (median): 4.06 ng/mL
